In brackets after ≈: the same amount, converted by molar mass. A value given as a limit tells only on which side of the number the result lay.

The test system of the test is L1210 cells. Nature of the test: In vitro Growth Inhibitory Activity Determination (L1210 cells, MTT). Format: cell-based. To be noted: Mus musculus, 72 h, 3 days incubation at 37° C., dose of drug that inhibits the growth of cells to one half that of the control cells, read-out: ID50 (the source's name). The protocol: L1210 cells were maintained in RPMI=1640 a medium supplemented with 10% heat inactivated fetal bovine serum and […] mercaptomethanol/liter medium (RPMI-L).
Exponential growing L1210 cells (1×10^3 cells) in 0.1 mL medium were seeded on day 0 in a 96-well microtiter plate. On day 1, 0.1 mL aliquot of medium containing graded concentration of test analogs was added to the initial volume. After incubation at 37° C. in a humidified incubator for 3 days, the plates were centrifuged briefly and […] of the growth medium was removed. Cell cultures were incubated with […] of 3-(4, 5-dimethylthiazol-2yl)-2,5- diphenyltetrazolium bromide (MTT; 1 mg/ml in Dulbecco's phosphate buffer saline) for 4 hours at 37° C. The resulting purple formazan precipitate was solubilized with […] of 0.04 N HCl in isopropyl alcohol. Absorbance was read in a Titertek Multiskan MCC scaning well spectrophotometer (Flow Laboratories) at a test wavelength of 570 nm and a reference wavelength of 630 nm.
The absorbances were stored on a floppy disk on a IBM-XT and uploaded on to a VAX computer.
Y=((AM - Ao)/(1+(X/ID50)n))+Ao
Am=absorbance of the control cells
Ao=absorbance of the cells in the presence of highest drug conc.
ID50 =dose of drug that inhibits the growth of cells to one half that of the control cells.
`C[C@@H](C(=O)NCCNC(=O)[C@H](C)N1C(=O)c2cccc3cc([N+](=O)[O-])cc(c23)C1=O)N1C(=O)c2cccc3cc([N+](=O)[O-])cc(c23)C1=O` [Example 1, (S,S)-N,N'-1,2-ethanediylbis[α-methyl-5-nitro-1,3-dioxo-1H-benz[de]isoquinoline-2(3H)-acetamide]]: the IC50 was determined as 0.61 µg/mL (≈ 0.935 µM).
In the case of `C[C@H](C(=O)NCCNC(=O)[C@@H](C)N1C(=O)c2cccc3cc([N+](=O)[O-])cc(c23)C1=O)N1C(=O)c2cccc3cc([N+](=O)[O-])cc(c23)C1=O` [Example 2, (R,R)-N,N'-1,2-ethanediylbis[α-methyl-5-nitro-1,3-dioxo-1H-benz[de]isoquinoline-2(3H)-acetamide]] it was 0.033 µg/mL (≈ 0.0506 µM); in that of `CSCC[C@@H](C(=O)NCCCNC(=O)[C@H](CCSC)N1C(=O)c2cccc3cc([N+](=O)[O-])cc(c23)C1=O)N1C(=O)c2cccc3cc([N+](=O)[O-])cc(c23)C1=O` [Example 3], 0.12 µg/mL (≈ 0.153 µM).
The result for `C[C@@H](C(=O)NCCCCNC(=O)[C@H](C)N1C(=O)c2cccc3cc([N+](=O)[O-])cc(c23)C1=O)N1C(=O)c2cccc3cc([N+](=O)[O-])cc(c23)C1=O` [Example 4] reads 0.36 µg/mL (≈ 0.529 µM).
For the molecule `C[C@@H](C(=O)NCCCNC(=O)[C@H](C)N1C(=O)c2cccc3cc([N+](=O)[O-])cc(c23)C1=O)N1C(=O)c2cccc3cc([N+](=O)[O-])cc(c23)C1=O` [Example 5], the IC50 was 0.025 µg/mL (≈ 0.0375 µM).
The result for `C[C@@H](C(=S)NCCNC(=S)[C@H](C)N1C(=O)c2cccc3cc([N+](=O)[O-])cc(c23)C1=O)N1C(=O)c2cccc3cc([N+](=O)[O-])cc(c23)C1=O` [Example 6, (S,S)-N,N'-1,2-ethanediylbis[α-methyl-5-nitro-1,3-dioxo-1H-benz[de]isoquinoline-2(3H)ethanethioamide]] reads 0.184 µg/mL (≈ 0.269 µM); that for `O=C(CCN1C(=O)c2cccc3cc([N+](=O)[O-])cc(c23)C1=O)NCCCCNC(=O)CCN1C(=O)c2cccc3cc([N+](=O)[O-])cc(c23)C1=O` [Example 7], 19 µg/mL (≈ 27.9 µM); that for `O=C(CCN1C(=O)c2cccc3cc([N+](=O)[O-])cc(c23)C1=O)NCCCNC(=O)CCN1C(=O)c2cccc3cc([N+](=O)[O-])cc(c23)C1=O` [Example 8], more than 20 µg/mL.
The result for `O=C(CCN1C(=O)c2cccc3cc([N+](=O)[O-])cc(c23)C1=O)NCCNC(=O)CCN1C(=O)c2cccc3cc([N+](=O)[O-])cc(c23)C1=O` [Example 9] reads 15.1 µg/mL (≈ 23.1 µM).

The values above are taken from patent publication US5206250A, “Bis-naphthalimides containing amide and thioamide linkers as anticancer agents” (Du Pont Merck Pharmaceutical Company, priority 1991, dated 1993).
